Data reported in ChEMBL document CHEMBL1201862, “PubChem BioAssay data set” (2004).
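Interpolation was linear, between the two tested concentrations surrounding the appropriate level; five concentrations were tested over 48 hours in 96-well plates. At the GI50, growth is halved.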 Activity calls are given as the source filed them. Cut-off read from the data, not from the text of the source: active = GI50 up to about 1.1 µM and inactive = higher.

Assays:
Assay in all cases: NCI-60 cell line screen, 48 h
786-0 = tested on: 786-0
A498 = tested on: A498
A549 = tested on: A549
ACHN = tested on: ACHN
CAKI-1 = tested on: CAKI-1
CCRF-CEM = tested on: CCRF-CEM
COLO 205 = tested on: COLO 205
DLD-1 = tested on: DLD-1
DMS-114 = tested on: DMS-114
DMS-273 = tested on: DMS-273
EKVX = tested on: EKVX
HCC 2998 = tested on: HCC 2998
HCT-116 = tested on: HCT-116
HCT-15 = tested on: HCT-15
HL-60 = tested on: HL-60
HOP-18 = tested on: HOP-18
HOP-62 = tested on: HOP-62
HOP-92 = tested on: HOP-92
HT-29 = tested on: HT-29
IGROV-1 = tested on: IGROV-1
K562 = tested on: K562
KM-20L2 = tested on: KM-20L2
KM12 = tested on: KM12
LOX IMVI = tested on: LOX IMVI
LXFL 529 = tested on: LXFL 529
M14 = tested on: M14
M19-MEL = tested on: M19-MEL
MOLT-4 = tested on: MOLT-4
Malme-3M = tested on: Malme-3M
NCI-H226 = tested on: NCI-H226
NCI-H23 = tested on: NCI-H23
NCI-H460 = tested on: NCI-H460
NCI-H522 = tested on: NCI-H522
OVCAR-3 = tested on: OVCAR-3
OVCAR-4 = tested on: OVCAR-4
OVCAR-5 = tested on: OVCAR-5
OVCAR-8 = tested on: OVCAR-8
RPMI-8226 = tested on: RPMI-8226
RXF 393 = tested on: RXF 393
RXF 631 = tested on: RXF 631
SF-268 = tested on: SF-268
SF-295 = tested on: SF-295
SF-539 = tested on: SF-539
SK-MEL-28 = tested on: SK-MEL-28
SK-MEL-2 = tested on: SK-MEL-2
SK-MEL-5 = tested on: SK-MEL-5
SK-OV-3 = tested on: SK-OV-3
SN12C = tested on: SN12C
SNB-19 = tested on: SNB-19
SNB-75 = tested on: SNB-75
SNB-78 = tested on: SNB-78
SR = tested on: SR
SW-620 = tested on: SW-620
TK-10 = tested on: TK-10
U-251 = tested on: U-251
UACC-257 = tested on: UACC-257
UACC-62 = tested on: UACC-62
UO-31 = tested on: UO-31
XF498 = tested on: XF498
BT-549 = tested on: BT-549
DU-145 = tested on: DU-145
Hs-578T = tested on: Hs-578T
MCF7 = tested on: MCF7
MDA-MB-231 = tested on: MDA-MB-231
MDA-N = tested on: MDA-N
PC-3 = tested on: PC-3
T47D = tested on: T47D

COC1=CC(C2c3cc4c(cc3[C@@H](Nc3ccc([N+](=O)[O-])cc3)C3COC(=O)[C@H]23)OCO4)=CC(=O)C1=O (stereo partly specified)
GI50 (786-0): 1.83 µM (inactive)
GI50 (A498): 1.84 µM (inactive)
GI50 (A549): 0.923 µM (active)
GI50 (ACHN): 0.912 µM (active)
GI50 (CAKI-1): 2.64 µM (inactive)
GI50 (CCRF-CEM): 1.06 µM (active)
GI50 (COLO 205): 21.4 µM (inactive)
GI50 (DLD-1): 14 µM (inactive)
GI50 (DMS-114): 2.57 µM (inactive)
GI50 (DMS-273): 0.697 µM (active)
GI50 (EKVX): 7.57 µM (inactive)
GI50 (HCC 2998): 2.63 µM (inactive)
GI50 (HCT-116): 6.64 µM (inactive)
GI50 (HCT-15): 3.27 µM
GI50 (HL-60): 0.982 µM (active)
GI50 (HOP-18): 53.6 µM (inactive)
GI50 (HOP-62): 0.646 µM (active)
GI50 (HOP-92): 1.52 µM (inactive)
GI50 (HT-29): 7.21 µM (inactive)
GI50 (IGROV-1): 13 µM (inactive)
GI50 (K562): 6.22 µM (inactive)
GI50 (KM-20L2): 9.1 µM (inactive)
GI50 (KM12): 4.53 µM (inactive)
GI50 (LOX IMVI): 2.15 µM (inactive)
GI50 (LXFL 529): 16.4 µM (inactive)
GI50 (M14): 3.29 µM (inactive)
GI50 (M19-MEL): 6.4 µM (inactive)
GI50 (MOLT-4): 0.217 µM (active)
GI50 (Malme-3M): 4.46 µM (inactive)
GI50 (NCI-H226): 1.64 µM (inactive)
GI50 (NCI-H23): 1.64 µM (inactive)
GI50 (NCI-H460): 0.277 µM (active)
GI50 (NCI-H522): 2.58 µM (inactive)
GI50 (OVCAR-3): 14.2 µM (inactive)
GI50 (OVCAR-4): 59.3 µM (inactive)
GI50 (OVCAR-5): 5.53 µM (inactive)
GI50 (OVCAR-8): 4.25 µM (inactive)
GI50 (RPMI-8226): 2.43 µM (inactive)
GI50 (RXF 393): 17.9 µM (inactive)
GI50 (RXF 631): 2.29 µM (inactive)
GI50 (SF-268): 2.53 µM (inactive)
GI50 (SF-295): 2.09 µM (inactive)
GI50 (SF-539): 1.82 µM (inactive)
GI50 (SK-MEL-28): 14.8 µM (inactive)
GI50 (SK-MEL-2): 17 µM (inactive)
GI50 (SK-MEL-5): 3.48 µM (inactive)
GI50 (SK-OV-3): 2.48 µM (inactive)
GI50 (SN12C): 2 µM (inactive)
GI50 (SNB-19): 3.07 µM (inactive)
GI50 (SNB-75): 1.54 µM (inactive)
GI50 (SNB-78): 28 µM (inactive)
GI50 (SR): 0.179 µM (active)
GI50 (SW-620): 5.31 µM (inactive)
GI50 (TK-10): 8.41 µM (inactive)
GI50 (U-251): 1.35 µM (inactive)
GI50 (UACC-257): 16.1 µM (inactive)
GI50 (UACC-62): 2.18 µM (inactive)
GI50 (UO-31): 6.24 µM (inactive)
GI50 (XF498): 5.5 µM (inactive)

O=C1C=CC2(C=C1)C[C@H](NC(=O)OCc1ccccc1)C(=O)O2
GI50 (786-0): 14.3 µM (inactive)
GI50 (A498): > 61.7 µM (inactive)
GI50 (A549): 38.1 µM (inactive)
GI50 (ACHN): 15.8 µM (inactive)
GI50 (BT-549): 18 µM (inactive)
GI50 (CAKI-1): 18 µM (inactive)
GI50 (CCRF-CEM): 1.08 µM (active)
GI50 (COLO 205): 5.93 µM (inactive)
GI50 (DLD-1): 5.53 µM (inactive)
GI50 (DMS-114): 20.3 µM (inactive)
GI50 (DMS-273): 18.3 µM (inactive)
GI50 (DU-145): 30.5 µM (inactive)
GI50 (EKVX): 12.9 µM (inactive)
GI50 (HCC 2998): 19.7 µM (inactive)
GI50 (HCT-116): 16 µM (inactive)
GI50 (HCT-15): 11 µM
GI50 (HL-60): 2.04 µM (inactive)
GI50 (HOP-18): 16.7 µM (inactive)
GI50 (HOP-62): > 54.2 µM (inactive)
GI50 (HOP-92): 16.3 µM (inactive)
GI50 (HT-29): 13.8 µM (inactive)
GI50 (Hs-578T): 40.6 µM (inactive)
GI50 (IGROV-1): 19.8 µM (inactive)
GI50 (K562): 3.08 µM (inactive)
GI50 (KM-20L2): 19 µM (inactive)
GI50 (KM12): 18.9 µM (inactive)
GI50 (LOX IMVI): 9.93 µM (inactive)
GI50 (LXFL 529): 12.1 µM (inactive)
GI50 (M14): 15.5 µM (inactive)
GI50 (M19-MEL): 18.4 µM (inactive)
GI50 (MCF7): 11.2 µM (inactive)
GI50 (MDA-MB-231): 17.5 µM (inactive)
GI50 (MDA-N): 14.8 µM (inactive)
GI50 (MOLT-4): 1.8 µM (inactive)
GI50 (Malme-3M): 13 µM (inactive)
GI50 (NCI-H226): 62.4 µM (inactive)
GI50 (NCI-H23): 16.1 µM (inactive)
GI50 (NCI-H460): 24.3 µM (inactive)
GI50 (NCI-H522): 3.3 µM (inactive)
GI50 (OVCAR-3): 15.5 µM (inactive)
GI50 (OVCAR-4): 18.2 µM (inactive)
GI50 (OVCAR-5): 20.1 µM (inactive)
GI50 (OVCAR-8): 16 µM (inactive)
GI50 (PC-3): 16.1 µM (inactive)
GI50 (RPMI-8226): 3.6 µM (inactive)
GI50 (RXF 393): 10.2 µM (inactive)
GI50 (RXF 631): 19.6 µM (inactive)
GI50 (SF-268): 17.2 µM (inactive)
GI50 (SF-295): 26.1 µM (inactive)
GI50 (SF-539): 22.4 µM (inactive)
GI50 (SK-MEL-28): 13 µM (inactive)
GI50 (SK-MEL-2): 19.3 µM (inactive)
GI50 (SK-MEL-5): 21.9 µM (inactive)
GI50 (SK-OV-3): > 67.1 µM (inactive)
GI50 (SN12C): 18.2 µM (inactive)
GI50 (SNB-19): 99.5 µM (inactive)
GI50 (SNB-75): 25.1 µM (inactive)
GI50 (SNB-78): 24.5 µM (inactive)
GI50 (SR): 1.08 µM (active)
GI50 (SW-620): 4.31 µM (inactive)
GI50 (T47D): 15.9 µM (inactive)
GI50 (TK-10): 15.2 µM (inactive)
GI50 (U-251): 19.3 µM (inactive)
GI50 (UACC-257): 16.9 µM (inactive)
GI50 (UACC-62): 17.3 µM (inactive)
GI50 (UO-31): 20.2 µM (inactive)
GI50 (XF498): 17.8 µM (inactive)
